Series [1] concerns the target CTNNB1. Nature of the series: HEK293-TLR7, 100 nM ASO, then resiquimod.
The target in series [2] is CTNNB1. Nature of the series: HEK293-TLR8, 100 nM ASO, then resiquimod.
Series [3] concerns the target LINC-PINT. Nature of the series: HEK293-TLR7, 100 nM ASO, then resiquimod.
For series [4], the target named is LINC-PINT. Nature of the series: HEK293-TLR8, 100 nM ASO, then resiquimod.

The text below walks through data of the OligoGym collection.

Strand notation (5' to 3'): a small letter for the sugar, then the base; units joined by * are phosphorothioate-linked, units joined directly phosphodiester-linked; [ ] holds rarer units or linkages, { } end groups; capitals alone tell only the bases. HELM strings list units from the 5' end as sugar, base in round brackets, then linkage (d deoxyribose, r ribose, m 2'-O-methyl, p phosphodiester). [sp] = phosphorothioate linkage; d = 2'-deoxy (DNA); m = 2'-O-methyl

Regarding “RNA1{m(C)[sp].m(U)[sp].m(U)[sp].m(A)[sp].m(U)[sp].d(A)[sp].d(A)[sp].d(T)[sp].d(T)[sp].d(A)[sp].d(T)[sp].d(T)[sp].d(G)[sp].d(C)[sp].d(A)[sp].m(A)[sp].m(G)[sp].m(U)[sp].m(G)[sp].m(A)}$$$$”, the TLR7 signal (NF-kB luciferase) (% of resiquimod alone) in the series with CTNNB1 [1] came to 74.9. The TLR8 potentiation (NF-kB luciferase) (fold of resiquimod alone) with CTNNB1 [2] is 2.78.
For “RNA1{m(C)[sp].m(C)[sp].m(A)[sp].m(C)[sp].m(C)[sp].d(C)[sp].d(A)[sp].d(C)[sp].d(T)[sp].d(T)[sp].d(G)[sp].d(G)[sp].d(C)[sp].d(A)[sp].d(G)[sp].m(A)[sp].m(C)[sp].m(C)[sp].m(A)[sp].m(U)}$$$$”, the TLR7 signal (NF-kB luciferase) (% of resiquimod alone) in the series with CTNNB1 [1] was determined as 86.9. The TLR8 potentiation (NF-kB luciferase) (fold of resiquimod alone) with CTNNB1 [2] is 0.99.
Take “mU*mU*mU*mG*mA*dA*dA*dT*dT*dC*dA*dG*dA*dA*dG*mA*mU*mU*mU*mG”: in the series with LINC-PINT [3], the TLR7 signal (NF-kB luciferase) (% of resiquimod alone) amounted to 35.1. In addition, in the series with LINC-PINT [4], the TLR8 potentiation (NF-kB luciferase) (fold of resiquimod alone) turned out to be 2.57.
“mA*mC*mC*mC*mU*dT*dC*dT*dC*dT*dC*dT*dG*dG*dT*mC*mC*mC*mA*mU” registered a TLR7 signal (NF-kB luciferase) (% of resiquimod alone) with LINC-PINT [3] of 43.4. The TLR8 potentiation (NF-kB luciferase) (fold of resiquimod alone) with LINC-PINT [4] was 2.55.
For “mU*mC*mU*mC*mU*dG*dG*dT*dC*dC*dC*dA*dT*dC*dC*mC*mU*mU*mC*mU” the same measures were 78.2 and 5.44.
In the series with LINC-PINT [3], “mG*mC*mA*mA*mG*dG*dC*dA*dG*dA*dG*dA*dA*dA*dC*mU*mC*mC*mA*mG” had a TLR7 signal (NF-kB luciferase) (% of resiquimod alone) of 20. The TLR8 potentiation (NF-kB luciferase) (fold of resiquimod alone) with LINC-PINT [4] stood at 1.45.
For “mG*mG*mU*mC*mU*dC*dC*dT*dC*dC*dA*dC*dA*dC*dC*mC*mU*mU*mC*mU” the same measures were 23.7 and 1.29.
For “mA*mA*mA*mG*mU*dC*dA*dA*dA*dA*dA*dG*dA*dA*dA*mA*mA*mC*mU*mG” the same measures were 45.6 and 1.62.
For “mU*mU*mU*mA*mU*dA*dT*dT*dA*dC*dA*dA*dA*dG*dC*mU*mA*mC*mU*mU” the same measures were 33.7 and 2.71.
The substance “mU*mU*mC*mU*mC*dT*dC*dT*dG*dG*dT*dC*dC*dC*dA*mU*mC*mC*mC*mU” yielded a TLR7 signal (NF-kB luciferase) (% of resiquimod alone) in the series with LINC-PINT [3] of 26.2. Moreover, in the series with LINC-PINT [4], the TLR8 potentiation (NF-kB luciferase) (fold of resiquimod alone) is 2.83.
On the same counts, the results for “mC*mC*mA*mU*mC*dC*dC*dT*dT*dC*dT*dG*dC*dT*dG*mC*mC*mA*mA*mG” are 52.6 and 2.38.
Substance “mC*mC*mC*mU*mA*dA*dT*dG*dC*dT*dT*dT*dC*dC*dT*mC*mU*mC*mC*mA” came in with a TLR7 signal (NF-kB luciferase) (% of resiquimod alone) with LINC-PINT [3] of 58.4. Further, in the series with LINC-PINT [4], the TLR8 potentiation (NF-kB luciferase) (fold of resiquimod alone) came out at 2.7.
On the same counts, the results for “mG*mG*mG*mU*mC*dT*dC*dC*dT*dC*dC*dA*dC*dA*dC*mC*mC*mU*mU*mC” are 21.5 and 0.87.
For “mU*mA*mU*mU*mC*dA*dT*dA*dT*dT*dT*dT*dT*dA*dT*mU*mU*mC*mA*mG” the same measures were 87.1 and 4.47.
The substance “mG*mC*mG*mU*mA*dG*dT*dT*dT*dC*dT*dC*dT*dT*dC*mC*mU*mC*mC*mC” yielded a TLR7 signal (NF-kB luciferase) (% of resiquimod alone) with LINC-PINT [3] of 27.2. Further, the TLR8 potentiation (NF-kB luciferase) (fold of resiquimod alone) in the series with LINC-PINT [4] amounted to 1.86.
In the case of “mG*mU*mC*mC*mC*dA*dT*dC*dC*dC*dT*dT*dC*dT*dG*mC*mU*mG*mC*mC”, in the series with LINC-PINT [3], the TLR7 signal (NF-kB luciferase) (% of resiquimod alone) is 22.5. The TLR8 potentiation (NF-kB luciferase) (fold of resiquimod alone) in the series with LINC-PINT [4] came out at 1.37.
In turn, “mU*mG*mU*mU*mU*dC*dC*dC*dC*dG*dG*dA*dG*dA*dG*mC*mA*mA*mU*mG” had a TLR7 signal (NF-kB luciferase) (% of resiquimod alone) with LINC-PINT [3] of 30.9. Further, in the series with LINC-PINT [4], the TLR8 potentiation (NF-kB luciferase) (fold of resiquimod alone) turned out to be 1.62.
For “mU*mU*mA*mG*mC*dT*dC*dC*dT*dT*dG*dC*dC*dT*dC*mG*mU*mU*mC*mC” the same measures were 31.7 and 3.43.
For “mU*mC*mC*mC*mA*dA*dC*dT*dC*dT*dT*dC*dT*dA*dA*mC*mU*mC*mG*mU” the same measures were 40.8 and 3.7.
In the series with LINC-PINT [3], “mC*mU*mC*mU*mC*dT*dG*dG*dT*dC*dC*dC*dA*dT*dC*mC*mC*mU*mU*mC” showed a TLR7 signal (NF-kB luciferase) (% of resiquimod alone) of 85. For the same substance, in the series with LINC-PINT [4], the TLR8 potentiation (NF-kB luciferase) (fold of resiquimod alone) worked out at 2.73.
Turning to “mC*mU*mU*mU*mA*dT*dA*dT*dT*dA*dC*dA*dA*dA*dG*mC*mU*mA*mC*mU”, in the series with LINC-PINT [3], the TLR7 signal (NF-kB luciferase) (% of resiquimod alone) was 54.8. In addition, the TLR8 potentiation (NF-kB luciferase) (fold of resiquimod alone) with LINC-PINT [4] amounted to 2.11.
“mU*mC*mU*mC*mU*dC*dT*dG*dG*dT*dC*dC*dC*dA*dT*mC*mC*mC*mU*mU” displayed a TLR7 signal (NF-kB luciferase) (% of resiquimod alone) with LINC-PINT [3] of 43.8. Further, in the series with LINC-PINT [4], the TLR8 potentiation (NF-kB luciferase) (fold of resiquimod alone) is 3.68.
“mU*mU*mG*mG*mC*dC*dT*dG*dT*dG*dG*dA*dT*dG*dC*mU*mU*mU*mG*mU” displayed a TLR7 signal (NF-kB luciferase) (% of resiquimod alone) with LINC-PINT [3] of 21.4. For the same substance, the TLR8 potentiation (NF-kB luciferase) (fold of resiquimod alone) with LINC-PINT [4] amounted to 0.75.
